“And” between values parts separate entries of the source, which are not always exact repeats. Equal entries are not always repeated. “Also recorded” adds a separate entry of the source.
Key:
[1] = test system: tumour astrocyte lines; details: lines from primary cultures of astrocytes of newborn rat brain; cited from earlier work
[2] = test system: rat brain C6 glioblastoma cells; details: injection of liposomes containing the ester vs liposomes without oxysterol (Werthle M & All); cited from earlier work
[3] = stability of active principle in the finished product to autoclaving; assay type: physicochemical; details: for Content in oxysterol: samples PE1-PE3, listed as oxysterol
Protocol: A batch has been subjected to a dosage before and after autoclaving 20 minutes at 121 °C, to determine whether oxysterol also resists to autoclaving. Three samples have been analysed :
The autoclaving yield is calculated in the following manner Yield autoclaving: Content oxysterol after autoclaving; Content oxysterol before autoclaving x 100 [formula]

[4] = test system: glioma C6 Cells; experiment: single stereotactic cerebral intra-ventricular injection in rats implanted with glioma C6 cells; assay type: in vivo
[5] = set-up: species or system rats and mice; details: in vivo
[6] = test system: rat brain C6 glioblastoma cells; experiment: intratumoral injection of liposomes in rats with intracerebral implantation of C6 glial cells (earlier studies); assay type: in vivo; details: compared with animals treated with liposomes only
Text: The effect of 7-β-hydroxy cholesteryl-3-β-oleate-ester on rat brain C6 glioblastoma cells was studied (Werthle M & All).
The ester of 7-β-hydroxy-cholesterol, the 7-β-hydroxy cholesteryl-3-β-oleate-ester (7-β-OHCOE) belongs to the oxysterols.

[7] = stability of Oxysterol solution to autoclave sterilisation; assay type: physicochemical
Protocol: A solution of 5 mg Oxysterol in 5 ml of a mixture Acetonitrile / isopropanol (44/56 v/v) is prepared then sterilized in the autoclave for 20 min at 121°C. The solution is analysed according to a […] method of oxysterol before and after autoclaving. The solution of oxysterol is subjected to a second autoclaving for 30minutes at 121°C. The areas of the peaks of oxysterol are determined and the yield after autoclaving is calculated in the following manner Yield: Area of oxysterol after autoclaving; Area of oxysterol before autoclaving x 100 [formula]

[8] = test system: Advanced glioblastoma, Grade III o IV astrocytoma, Anaplastic oligodendroglioma; experiment: compassionate clinical trial, stereotactic administration of liposomal form; assay type: in vivo, patients; details: 1 to 3 doses, total 0.05 to 3.2mg/patient
[9] = after autoclaving 20 minutes at 121 °C
[10] = 2 autoclavings, second for 30 minutes at 121°C

For `CC(C)CCC[C@@H](C)[C@H]1CC[C@H]2[C@@H]3[C@@H](O)C=C4C[C@@H](O)CC[C@]4(C)[C@H]3CC[C@]12C` [7-β-OH-CH, 7 beta-hydroxy-cholesterol], the “lethal effect / cytotoxicity” value [1] is given as “lethal effect”.
In the case of `CCCCCCCC/C=C\CCCCCCCC(=O)O[C@H]1CC[C@@]2(C)C(=C[C@H](O)[C@H]3[C@@H]4CC[C@H]([C@H](C)CCCC(C)C)[C@@]4(C)CC[C@@H]32)C1` [7-β-OHCOE, 7-β-hydroxy cholesteryl-3-β-oleate-ester], the tumor volume [2] is listed as “marked decrease in tumor volume”, the “Content in oxysterol, Average” value [3, 9] is listed as 1,43 mg/g and the Content in oxysterol [3, 9] is listed as 1,42 mg/g and 1,41 mg/g and 1,45 mg/g. The “average yield of autoclaving” value ([3]; autoclaving 20 minutes at 121 °C) was 97,9%, the “Content in oxysterol, Average” value ([3]; before autoclaving) was 1,46 mg/g and the Content in oxysterol ([3]; before autoclaving) was 1,45 mg/g and 1,46 mg/g. For the same molecule, the survival ([4]; injection of liposomal form in experimental animals) was “did affect neither survival nor body weight”, the “total tumoral volume, mean value” ([4]; liposomal, injected 3 days after implantation, sacrificed 10 days after treatment, reduced from 4.4mm3) was 0.8 mm3 and the body weight ([4]; rat, in vivo) was “did affect neither survival nor body weight”. For the same molecule, the metabolism [5] was “metabolized to cholesterol within the cerebral parenchyma”, the noxious effects [5] was “no noxious effects” and the tumor growth [6] was “significant regression of tumor growth; also recorded: spectacular regression of tumour growth”. For the same molecule, the “Area oxysterol after autoclaving” value ([7]; 1 autoclaving, 20 min at 121°C) was 5517,4, the Yield of autoclaving ([7]; 1 autoclaving, 20 min at 121°C) was 100,2% and the “Area oxysterol before autoclaving” value ([7]; 1 autoclaving, 5 mg in 5 ml Acetonitrile / isopropanol (44/56 v/v)) was 5506,5. The “Area oxysterol before autoclaving” value ([7]; 2 autoclavings) was 5666,1, the “Area oxysterol after autoclaving” value [7, 10] was 5716,3 and the Yield of autoclaving [7, 10] was 100,9%. For the same molecule, the “partial or total remission observed” value ([8]; 11 patients included) was 3 patients and the side effects ([8]; 11 patients) was “No significant side effects were observed”.

Source: patent publication EP2433619A1, “Novel antitumoral agent and its therapeutic uses” (Intsel Chimos, priority 2010, dated 2012)
